Assay results as given in PubChem BioAssay AID248 (DTP/NCI, 2004).
Where “and” joins values, the source holds several entries; their conditions need not be identical. Equal entries are not always repeated. Inconclusive results and toxic doses are left out. Cut-off read from the data, not from the text of the source: active = T/C of 150% or more; inactive = T/C below 125%.

Test system: L1210 leukemia ip in BDF1 mice, survival T/C
Assay: NCI In Vivo Anticancer Drug Screen. Data for tumor model L1210 Leukemia (intraperitoneal) in B6D2F1 (BDF1) mice
Settings: endpoint: mean survival time, higher = longer survival
Method in brief: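 Survival endpoint. Drug-treated group vs vehicle group, expressed as T divided by C. Tumor passaged by transplantation.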

[1] = dose: 100.0 mg/kg/injection, schedule: Q04DX002 (ip), vehicle: saline with Tween-80
[2] = dose: 200.0 mg/kg/injection, schedule: Q04DX002 (ip), vehicle: saline with Tween-80
[3] = dose: 400.0 mg/kg/injection, schedule: Q04DX002 (ip), vehicle: saline with Tween-80
[4] = dose: 100.0 mg/kg/injection, schedule: Q01DX009 (ip), vehicle: saline with Tween-80
[5] = dose: 100.0 mg/kg/injection, schedule: Q04DX003 (ip), vehicle: saline with Tween-80
[6] = dose: 200.0 mg/kg/injection, schedule: Q01DX009 (ip), vehicle: saline with Tween-80
[7] = dose: 200.0 mg/kg/injection, schedule: Q04DX003 (ip), vehicle: saline with Tween-80
[8] = dose: 400.0 mg/kg/injection, schedule: Q01DX009 (ip), vehicle: saline with Tween-80
[9] = dose: 400.0 mg/kg/injection, schedule: Q04DX003 (ip), vehicle: saline with Tween-80
[10] = dose: 100.0 mg/kg/injection, schedule: Q04DX003 (ip), vehicle: Klucel (hydroxypropylcellulose) (HPC)
[11] = dose: 200.0 mg/kg/injection, schedule: Q04DX003 (ip), vehicle: Klucel (hydroxypropylcellulose) (HPC)
[12] = dose: 400.0 mg/kg/injection, schedule: Q04DX003 (ip), vehicle: Klucel (hydroxypropylcellulose) (HPC)
[13] = dose: 100.0 mg/kg/injection, schedule: Q01DX001 (ip), vehicle: saline
[14] = dose: 200.0 mg/kg/injection, schedule: Q01DX001 (ip), vehicle: saline
[15] = dose: 400.0 mg/kg/injection, schedule: Q01DX001 (ip), vehicle: saline
[16] = dose: 100.0 mg/kg/injection, schedule: Q01DX009 (ip), vehicle: Klucel (hydroxypropylcellulose) (HPC)
[17] = dose: 200.0 mg/kg/injection, schedule: Q01DX009 (ip), vehicle: Klucel (hydroxypropylcellulose) (HPC)
[18] = dose: 400.0 mg/kg/injection, schedule: Q01DX009 (ip), vehicle: Klucel (hydroxypropylcellulose) (HPC)
[19] = dose: 100.0 mg/kg/injection, schedule: Q04DX002 (ip), vehicle: Klucel (hydroxypropylcellulose) (HPC)
[20] = dose: 200.0 mg/kg/injection, schedule: Q04DX002 (ip), vehicle: Klucel (hydroxypropylcellulose) (HPC)

Measured: T/C

OC1CC23C=CC2(C1)C1(CC3)OCCO1 (stereo not drawn)
inactive: dose: 50.0 mg/kg/injection, schedule: Q04DX002 (ip), vehicle: saline with Tween-80 92 % of control | [1] 92 % of control | [2] 95 % of control | [3] 98 % of control

COC(=O)C1(C(=O)OC)C2C(=O)C3C(C21)C3(C(=O)OC(C)(C)C)C(=O)OC(C)(C)C (stereo not drawn)
inactive: [4] 95 % of control | [5] 101 % of control and 98 % of control | [6] 92 % of control | [7] 102 % of control and 88 % of control | [8] 92 % of control | [9] 91 % of control and 111 % of control

ClC12OOC(c3ccccc3)(O1)C(c1ccccc1)c1ccccc12 (stereo not drawn)
inactive: [10] 93 % of control | [11] 98 % of control | [12] 98 % of control

Cc1ccc(S(=O)(=O)CCN2CCN(C)CC2)cc1
inactive: [13] 100 % of control | [14] 94 % of control

OC(CBr)C(O)CBr (stereo not drawn)
inactive: dose: 12.5 mg/kg/injection, schedule: Q01DX009 (ip), vehicle: saline 101 % of control | dose: 25.0 mg/kg/injection, schedule: Q01DX009 (ip), vehicle: saline 97 % of control | dose: 50.0 mg/kg/injection, schedule: Q01DX009 (ip), vehicle: saline 97 % of control

CCSP(=S)(SCC)SCC
inactive: dose: 75.0 mg/kg/injection, schedule: Q04DX003 (ip), vehicle: Klucel (hydroxypropylcellulose) (HPC) 94 % of control | dose: 150.0 mg/kg/injection, schedule: Q04DX003 (ip), vehicle: Klucel (hydroxypropylcellulose) (HPC) 92 % of control | dose: 300.0 mg/kg/injection, schedule: Q04DX003 (ip), vehicle: Klucel (hydroxypropylcellulose) (HPC) 120 % of control

O=C1ON(c2ccccc2)C(c2ccccc2)N1c1ccc([N+](=O)[O-])cc1 (stereo not drawn)
inactive: dose: 50.0 mg/kg/injection, schedule: Q01DX001 (ip), vehicle: saline 106 % of control | [13] 114 % of control | [14] 100 % of control | [15] 112 % of control

CCCCSCCC
inactive: [4] 98 % of control | [5] 117 % of control | [6] 98 % of control | [7] 96 % of control | [8] 94 % of control | [9] 94 % of control

O=[N+]([O-])c1cccc(OCCCOc2cccc([N+](=O)[O-])c2)c1
inactive: [13] 103 % of control | [14] 102 % of control | [15] 100 % of control

O=C(O)c1ccc(S(=O)(=O)c2ccc(C(=O)O)cc2)cc1
inactive: [10] 103 % of control | [11] 97 % of control | [12] 88 % of control

CCCOS(C)(=O)=O
inactive: [13] 100 % of control | [14] 100 % of control | [15] 100 % of control

CN(C)c1ccc(C(=O)/C=C/c2ccc([N+](=O)[O-])cc2)cc1
inactive: [16] 87 % of control | [17] 97 % of control | [18] 86 % of control

O=[N+]([O-])c1ccc2sc3ccccc3c2c1
inactive: [19] 108 % of control | [20] 97 % of control | dose: 400.0 mg/kg/injection, schedule: Q04DX002 (ip), vehicle: Klucel (hydroxypropylcellulose) (HPC) 101 % of control

CNC(C#N)Cc1ccccc1 (stereo not drawn)
inactive: dose: 2.5 mg/kg/injection, schedule: Q01DX009 (ip), vehicle: saline 96 % of control | dose: 5.0 mg/kg/injection, schedule: Q01DX009 (ip), vehicle: saline 98 % of control | dose: 10.0 mg/kg/injection, schedule: Q01DX009 (ip), vehicle: saline 104 % of control | dose: 20.0 mg/kg/injection, schedule: Q01DX009 (ip), vehicle: saline 101 % of control

c1ccc2n[se]nc2c1
inactive: dose: 12.5 mg/kg/injection, schedule: Q04DX003 (ip), vehicle: saline 86 % of control | dose: 25.0 mg/kg/injection, schedule: Q04DX003 (ip), vehicle: saline 103 % of control

O=C(O)COc1nc(Cl)c(Cl)cc1Cl
inactive: [19] 107 % of control | [20] 104 % of control

CCCN(CCC)C(=O)SCC
inactive: dose: 100.0 mg/kg/injection, schedule: Q01DX001 (ip), vehicle: saline with Tween-80 101 % of control | [5] 101 % of control and 105 % of control | dose: 200.0 mg/kg/injection, schedule: Q01DX001 (ip), vehicle: saline with Tween-80 97 % of control | [7] 100 % of control and 101 % of control | dose: 400.0 mg/kg/injection, schedule: Q01DX001 (ip), vehicle: saline with Tween-80 97 % of control | [9] 110 % of control and 117 % of control

O=C(O)c1cccc(N=Cc2ccc3c(c2)CCC3)c1
inactive: [10] 94 % of control | [11] 94 % of control | [12] 95 % of control

CNC(=O)Oc1cc2c(cc1C)C(C)(C)CCC2(C)C
inactive: [16] 96 % of control | [17] 96 % of control | [18] 91 % of control

O=C1C2C3C=CC(CC3)C2S(=O)(=O)C2C3C=CC(CC3)C12 (stereo not drawn)
inactive: dose: 25.0 mg/kg/injection, schedule: Q04DX002 (ip), vehicle: gum acacia 96 % of control | dose: 50.0 mg/kg/injection, schedule: Q04DX002 (ip), vehicle: gum acacia 104 % of control | dose: 100.0 mg/kg/injection, schedule: Q04DX002 (ip), vehicle: gum acacia 100 % of control

CC(C)CCO[Si](C)(C)CCl
inactive: dose: 50.0 mg/kg/injection, schedule: Q01DX001 (ip), vehicle: carboxymethylcellulose (CMC) 103 % of control | dose: 100.0 mg/kg/injection, schedule: Q01DX001 (ip), vehicle: carboxymethylcellulose (CMC) 103 % of control | dose: 200.0 mg/kg/injection, schedule: Q01DX001 (ip), vehicle: carboxymethylcellulose (CMC) 97 % of control | dose: 400.0 mg/kg/injection, schedule: Q01DX001 (ip), vehicle: carboxymethylcellulose (CMC) 103 % of control

O=S1(=O)N=C(Sc2ccccc2)c2ccccc21
inactive: [1] 102 % of control | [2] 98 % of control | [3] 98 % of control

CCOC(=O)n1cnc(N)n1
inactive: [16] 104 % of control | [17] 104 % of control | [18] 107 % of control

c1ccc2c(c1)NC(c1cccc3ccccc13)S2 (stereo not drawn)
inactive: [13] 94 % of control | [14] 100 % of control | [15] 94 % of control

CC(=O)Nc1ccc(Cc2ccc(NC(C)=O)cc2)cc1
inactive: dose: 75.0 mg/kg/injection, schedule: Q01DX001 (ip), vehicle: Klucel (hydroxypropylcellulose) (HPC) 93 % of control | [5] 101 % of control | dose: 150.0 mg/kg/injection, schedule: Q01DX001 (ip), vehicle: Klucel (hydroxypropylcellulose) (HPC) 100 % of control | [7] 93 % of control | dose: 300.0 mg/kg/injection, schedule: Q01DX001 (ip), vehicle: Klucel (hydroxypropylcellulose) (HPC) 98 % of control | [9] 97 % of control

CC(C)CCC1(C)CC(=O)Nc2ccccc21 (stereo not drawn)
inactive: [13] 97 % of control | [14] 94 % of control | [15] 95 % of control
